Measured values as given in patent US20180353460A1, “METHODS OF TREATING UROLOGICAL DISORDERS USING SARMs” (priority 2014, published 2018).
“And” between values parts separate entries of the source, which are not always exact repeats. Equal values may be shown once.

Tests used:
Format in all cases: in vivo, rat
[1] = tested on: prostate, seminal vesicles and levator ani muscle; test: Androgenic and anabolic activity in castrated (ORX) male rats, daily oral gavage for fourteen days; settings: castrated rats, comparators
Experimental: Male Sprague-Dawley rats weighing approximately 200 g were purchased from Harlan Bioproducts for Science (Indianapolis, Ind.). […] The anabolic and androgenic activity of compound of Formula VIII in intact animals was tested, as well as a dose response evaluation in acutely orchidectomized (ORX) animals. Regenerative effects of the compound of Formula VIII in chronically (9 days) ORX rats was similarly evaluated.
The test article for this study was weighed and dissolved in 10% DMSO (Fisher) diluted with PEG 300 (Acros Organics, NJ) for preparation of the appropriate dosage concentrations. […] Animals were randomly assigned to one of seven groups consisting of 4 to 5 animals per group. Control groups (intact and ORX) were administered vehicle daily. Compound of Formula VIII was administered via oral gavage at doses of 0.01, 0.03, 0.1, 0.3, 0.75, and 1 mg/day to both intact and ORX groups. Where appropriate, animals were castrated on day one of the study. Treatment with compound of Formula VIII began nine days post ORX and was administered daily via oral gavage for fourteen days.
(§1) In addition, ventral prostate, seminal vesicles, and levator ani muscle were removed, individually weighed, normalized to body weight, and expressed as a percentage of intact control. Student's T-test was used to compare individual dose groups to the intact control group. Significance was defined a priori as a P-value <0.05. Ventral prostate and seminal vesicle weights were evaluated as a measure of androgenic activity, whereas levator ani muscle weight was evaluated as a measure of anabolic activity. Blood was collected from the abdominal aorta, centrifuged, and sera were frozen at −80° C. prior to determination of serum hormone levels. Serum luteinizing hormone (LH) and follicle stimulating hormone (FSH) concentrations were determined.
Male Sprague-Dawley rats weighing approximately 200 g were purchased from Harlan Bioproducts for Science (Indianapolis, Ind.). […] Anabolic and androgenic activity of compound of Formula IX in intact animals was evaluated, and the dose response in acutely orchidectomized (ORX) animals was evaluated as well. Regenerative effects of compound of Formula IX in chronically (9 days) ORX rats were also assessed.
The compound was weighed and dissolved in 10% DMSO (Fisher) diluted with PEG 300 (Acros Organics, NJ) for preparation of the appropriate dosage concentrations. […] Intact and ORX animals were randomly assigned to one of seven groups consisting of 4 to 5 animals per group. Control groups (intact and ORX) were administered vehicle daily. Compound of Formula IX was administered via oral gavage at doses of 0.01, 0.03, 0.1, 0.3, 0.75, and 1 mg/day to both intact and ORX groups.
as §1, with “Castrated animals (on day one of the study) were randomly assigned to dose groups (4-5 animals/group) of 0.01, 0.03, 0.1, 0.3, 0.75, and 1 mg/day, for dose-response evaluation. Dosing began nine days post ORX and was administered daily via oral gavage for fourteen days. […] In” for “In”, “As a measure of androgenic activity, ventral” for “Ventral”, “evaluated,” for “evaluated as a measure of androgenic activity,”, “lutenizing” for “luteinizing”
Male Sprague-Dawley rats weighing approximately 200 g were purchased from Harlan Bioproducts for Science (Indianapolis, Ind.).

[2] = tested on: prostate, seminal vesicles and levator ani muscle; test: Androgenic and anabolic activity in castrated immature male rats, subcutaneous osmotic pumps, 14 days; settings: castrated rats, 14 days, FIG. 2
Experimental: Immature male Sprague-Dawley rats, weighing 90 to 100 g, were purchased from Harlan Biosciences (Indianapolis, Ind.). The animals were maintained on a 12 hour light-dark cycle with food and water available ad libitum.
Rats were randomly distributed into treatment groups groups. One day prior to the start of drug treatment, animals were individually removed from the cage, weighed and anesthetized with an intraperitoneal dose of ketamine/xylazine (87/13 mg/kg; approximately 1 mL per kg). When appropriately anesthetized (i.e., no response to toe pinch), the animals' ears were marked for identification purposes. Animals were then placed on a sterile pad and their abdomen and scrotum washed with betadine and 70% alcohol. The testes were removed via a midline scrotal incision, with sterile suture being used to ligate supra-testicular tissue prior to surgical removal of each testis. The surgical wound site was closed with sterile stainless steel wound clips, and the site cleaned with betadine. The animals were allowed to recover on a sterile pad (until able to stand) and then returned to their cage.
Twenty-four hours later, animals were re-anesthetized with ketamine/xylazine, and an Alzet osmotic pump(s) (model 2002) was placed subcutaneouly in the scapular region. In this instance, the scapular region was shaved and cleaned (betadine and alcohol) and a small incision (1 cm) made using a sterile scalpel. The osmotic pump was inserted and the wound closed with a sterile stainless steel wound clip. Animals were allowed to recover and were returned to their cage. Osmotic pumps contained the appropriate treatment dissolved in polyethylene glycol 300 (PEG300). Osmotic pumps were filled with the appropriate solution one day prior to implantation. Animals were monitored daily for signs of acute toxicity to drug treatment (e.g., lethargy, rough coat).
After 14 days of drug treatment, rats were anesthetized with ketamine/xylazine. Animals were then sacrificed by exsanguinations under anesthesia. A blood sample was collected by venipuncture of the abdominal aorta, and submitted for complete blood cell analysis. A portion of the blood was placed in a separate tube, centrifuged at 12,000 g for 1 minute, and the plasma layer removed and frozen at −20° C. The ventral prostates, seminal vesicles, levator ani muscle, liver, kidneys, spleen, lungs, and heart were removed, cleared of extraneous tissue, weighed, and placed in vials containing 10% neutral buffered formalin. Preserved tissues were sent for histopathological analysis.
For data analysis, the weights of all organs were normalized to body weight, and analyzed for any statistical significant difference by single-factor ANOVA. The weights of prostate and seminal vesicle were used as indexes for evaluation of androgenic activity, and the levator ani muscle weight was used to evaluate the anabolic activity.

[3] = tested on: prostate, seminal vesicles and levator ani muscle; test: Androgenic and anabolic effects in intact, hemi-orchidectomized and castrated rats, subdermal osmotic pumps, 14 days; settings: 0.5 mg/day; for Levator Ani weight / prostate weight / seminal vesicle weight: n = 5
Experimental: Male Sprague-Dawley rats were purchased from Harlan Biosciences (Indianapolis, Ind.). The animals were maintained on a 12 h cycle of light and dark with food and water available ad libitum. All animal studies were reviewed and approved. Immature male Sprague-Dawley rats weighing 187 to 214 g were randomly distributed into 9 groups of 5 animals. One day before the initiation of drug treatment, groups 4 through 6 and groups 7 through 9 received unilateral or bilateral orchidectomy, respectively, via a midline scrotal incision. […] All drugs given to animals were freshly prepared as solutions in polyethylene glycol 300 (PEG 300). Groups 4 and 7 received treatment with vehicle alone (i.e., PEG 300). […] Animals in groups 2, 5, and 8 received compound of Formula XII (0.5 mg/day) via implantation of subdermal osmotic pumps. After 14 days of drug treatment, rats were weighed, anesthetized, and sacrificed. The ventral prostates, seminal vesicles, and levator ani muscle were removed and weighed. Osmotic pumps were also removed from animals to check for correct pump operation. The weights of all organs were normalized to body weight, and analyzed for any statistically significant differences between groups using single-factor ANOVA with the alpha value set a priori at p<0.05. The weights of prostates and seminal vesicles were used as indices for evaluation of androgenic activity, and the levator ani muscle weight was used to evaluate the anabolic activity. Statistical analyses of parameters from complete blood count or serum chemical profiling, wherever applicable, were performed by single-factor ANOVA with the alpha value set a priori at p<0.05.

[4] = tested on: prostate, seminal vesicles and levator ani muscle; test: Androgenic and anabolic activity in intact male rats, daily oral gavage
Experimental: Male Sprague-Dawley rats weighing approximately 200 g were purchased from Harlan Bioproducts for Science (Indianapolis, Ind.). The animals were maintained on a 12 h light/dark cycle with food (7012C LM-485 Mouse/Rat Sterilizable Diet, Harlan Teklad, Madison, Wis.) and water available ad libitum. The anabolic and androgenic activity of compound of Formula VIII in intact animals was tested, as well as a dose response evaluation in acutely orchidectomized (ORX) animals. Regenerative effects of the compound of Formula VIII in chronically (9 days) ORX rats was similarly evaluated.
The test article for this study was weighed and dissolved in 10% DMSO (Fisher) diluted with PEG 300 (Acros Organics, NJ) for preparation of the appropriate dosage concentrations. The animals were housed in groups of 2 to 3 animals per cage. Animals were randomly assigned to one of seven groups consisting of 4 to 5 animals per group. Control groups (intact and ORX) were administered vehicle daily. Compound of Formula VIII was administered via oral gavage at doses of 0.01, 0.03, 0.1, 0.3, 0.75, and 1 mg/day to both intact and ORX groups. Where appropriate, animals were castrated on day one of the study. Treatment with compound of Formula VIII began nine days post ORX and was administered daily via oral gavage for fourteen days.
as §1, with “The animals were sacrificed under anesthesia (ketamine/xyalzine, 87:13 mg/kg) and body weights were recorded. In” for “In”
Male Sprague-Dawley rats weighing approximately 200 g were purchased from Harlan Bioproducts for Science (Indianapolis, Ind.). The animals were maintained on a 12 h light/dark cycle with food (7012C LM-485 Mouse/Rat Sterilizable Diet, Harlan Teklad, Madison, Wis.) and water available ad libitum. Anabolic and androgenic activity of compound of Formula IX in intact animals was evaluated, and the dose response in acutely orchidectomized (ORX) animals was evaluated as well. Regenerative effects of compound of Formula IX in chronically (9 days) ORX rats were also assessed.
The compound was weighed and dissolved in 10% DMSO (Fisher) diluted with PEG 300 (Acros Organics, NJ) for preparation of the appropriate dosage concentrations. The animals were housed in groups of 2 to 3 animals per cage. Intact and ORX animals were randomly assigned to one of seven groups consisting of 4 to 5 animals per group. Control groups (intact and ORX) were administered vehicle daily. Compound of Formula IX was administered via oral gavage at doses of 0.01, 0.03, 0.1, 0.3, 0.75, and 1 mg/day to both intact and ORX groups.
Castrated animals (on day one of the study) were randomly assigned to dose groups (4-5 animals/group) of 0.01, 0.03, 0.1, 0.3, 0.75, and 1 mg/day, for dose-response evaluation. Dosing began nine days post ORX and was administered daily via oral gavage for fourteen days. The animals were sacrificed under anesthesia (ketamine/xyalzine, 87:13 mg/kg) after a 14-day dosing regimen, and body weights were recorded. In addition, ventral prostate, seminal vesicles, and levator ani muscle were removed, individually weighed, normalized to body weight, and expressed as a percentage of intact control. Student's T-test was used to compare individual dose groups to the intact control group. […]

Structure (SMILES)	maximal stimulation of levator ani muscle weight [1]	Levator Ani weight ([3]; Castrated rats)	prostate weight ([3]; Castrated rats)	seminal vesicle weight ([3]; Castrated rats)	Levator Ani weight ([3]; Hemi-castrated rats)	prostate weight ([3]; Hemi-castrated rats)	seminal vesicle weight ([3]; Hemi-castrated rats)	Levator Ani weight ([3]; Intact rats)	prostate weight ([3]; Intact rats)	seminal vesicle weight ([3]; Intact rats)	further results
CCC(=O)O[C@H]1CC[C@H]2[C@@H]3CCC4=CC(=O)CC[C@]4(C)[C@H]3CC[C@]12C [TP, testosterone propionate, reference compound]	104%	87.27 ± 10.25 % of intact control	76.78 ± 10.43 % of intact control	63.48 ± 17.05 % of intact control	98.63 ± 10.47 % of intact control	98.57 ± 7.98 % of intact control	114.19 ± 23.81 % of intact control	95.61 ± 9.34 % of intact control	97.45 ± 10.82 % of intact control	103.95 ± 13.23 % of intact control	weights of prostate, seminal vesicle and levator ani muscle [2]: increased the weights of prostate, seminal vesicle, and levator ani muscle in castrated rats in a dose-dependent manner
CC(=O)Nc1ccc(OC[C@](C)(O)C(=O)Nc2ccc([N+](=O)[O-])c(C(F)(F)F)c2)cc1 [XII, S-3-(4-acetylaminophenoxy)-2-hydroxy-2-methyl-N-(4-nitro-3-trifluoromethylphenyl) propionamide]	101%	100.65 ± 10.86 % of intact control	32.55 ± 11.65 % of intact control	16.47 ± 5.21 % of intact control	108 % of intact control and 108.10 ± 8.92 % of intact control	75 % of intact control and 74.69 ± 8.44 % of intact control	79 % of intact control and 78.55 ± 13.58 % of intact control	109.15 ± 14.68 % of intact control	79 % of intact control and 79.41 ± 9.32 % of intact control	90.54 ± 12.10 % of intact control	adverse pharmacologic effects [3]: No adverse pharmacologic effects were observed
C[C@](O)(COc1ccc(Cl)c(F)c1)C(=O)Nc1ccc(C#N)c(C(F)(F)F)c1 [XIV, (S)-3-(4-chloro-3-fluorophenoxy)-N-(4-cyano-3-(trifluoromethyl)phenyl)-2-hydroxy-2-methylpropanamide]	–	–	–	–	–	–	–	–	–	–	levator ani muscle weight ([4]; 0.01 mg/day): 100%±10%; prostate weight ([4]; 0.01 mg/day): 117%±20%; levator ani muscle weight ([4]; 0.03 mg/day): 98%±7%; prostate weight ([4]; 0.03 mg/day): 98%±15%; levator ani muscle weight ([4]; 0.1 mg/day): 110%±5%; prostate weight ([4]; 0.1 mg/day): 82%±20%; levator ani muscle weight ([4]; 0.3 mg/day): 110%±5%; prostate weight ([4]; 0.3 mg/day): 62%±5%; levator ani muscle weight ([4]; 0.75 mg/day): 125%±10%; prostate weight ([4]; 0.75 mg/day): 107%±30%; levator ani muscle weight ([4]; 1 mg/day): 129%±10%; prostate weight ([4]; 1 mg/day): 110%±14%
